Series [1] is described as follows: Release of PTX in vitro (linker hydrolysis) in human serum. To be noted: 100 μM stock diluted 10-fold in 100% human serum, 37 °C, HPLC, triplicate. Format: in vitro ADME. The method, then:
(§1) Stock solutions of AGM-330-PTX (100 μM) were diluted 10-fold with pre-warmed 100% human serum (Sigma-Aldrich) or PBS and incubated at 37 °C for 0, 1, 2, 6 and 12 h. […] Each experiment was performed in triplicate.
(§2) Figure S10. A, B, Changes in the HPLC chromatogram of AGM-330-PTX after incubation with human serum (A) or PBS (B). C, D, MS spectra of AGM-330-PTX (C) and AGM-330 (D). E, Time-dependent fluorescence imaging of AGM-330-PTX-Rh in MDA-MB-231 cells. Cells were incubated with 5 μmol/l AGM-330-PTX-Rh. […]
(§3) bit secondary antibody coupled to Alexa Fluor 488. Cells were then fixed with 4 % paraformaldehyde, and the nuclei were stained with DAPI. MERGE represents a merged image of AGM-330, PTX, and nuclear staining by […]

Series [2] can be described thus: Release of PTX in vitro (linker hydrolysis) in PBS. The class given is physicochemical. To be noted: 100 μM stock diluted 10-fold in PBS, 37 °C, HPLC, triplicate. The method, then: as §1, §2, §3
Another series concerns MDA-MB-231-luc xenograft. The experiment in a line: Tumorigenesis experiment, MDA-MB-231-luc breast cancer xenograft. The method, then: All animal experiments were performed in accordance with IACUC guidelines (GIST-2019-040). For tumorigenesis experiments, anesthetized 6-week-old female NOD-scid Il2rg^-^/^- mice (NPG^TM, VITALSTAR) were inoculated in the mammary fat pad with 1 × 10^6 MDA-MB-231-luc cells in a 100 μl volume (n = 5 for each group). After tumor cell inoculation, when the tumor volume reached approximately 100 mm^3, the mice were randomly divided into the following five groups: (i) control, (ii) low-dose paclitaxel (2 mg/kg), (iii) high-dose paclitaxel (10 mg/kg), (iv) AGM-330 (16.68 mg/kg, molar equivalent to 2 mg/kg of PTX), and (v) AGM-330-PTX (19.05 mg/kg, molar equivalent to 2 mg/kg of PTX). The tumor size was measured twice a week, and the tumor volume was calculated with the following formula: volume (mm^3) = [length (mm)] × [width (mm)]^2 × 0.5. For the bioluminescent imaging experiment, D-luciferin (150 mg/kg; PerkinElmer) was intraperitoneally injected into each mouse, and an IVIS 100 imaging system (Xenogen, Corporation, Alameda, CA) was used for bioluminescent monitoring. Mice were anesthetized with vaporized isofurane (BK Pharm, Ilsan, Korea) and placed in an imaging chamber. After 10 min, each animal was imaged with an exposure time of 1 min. All bioluminescent image data were obtained using Living Image software (version 4.5.2, PerkinElmer). Photons detected from tumors were converted to average radiance values (photon/sec/cm^2/sr), which are quantitative data obtained from a region of […] (ROI) and include the photons emitted by bioluminescent cells from an assigned rectangular area over the whole body of each mouse.
A, Cell proliferation inhibition by AGM-330-PTX treatment was determined for 48 h by the WST assay in multiple breast and colorectal cancer cells and in normal cells. B, Schematic representation of the experimental protocol as described in the materials and methods section. Anesthetized 6‑week-old […] NPG mice were inoculated with a 1:1 mix of Matrigel and 1 × 10^6 MDA-MB-231-luc cells into the mammary fat pad. When the volume of primary tumors reached approximately 100 mm^3, tumor-bearing mice were treated with vehicle (PBS), PTX (2 or 10 mg/kg), AGM-330 (16.68 mg/kg, molar equivalent to 2 mg/kg of PTX), or AGM-330-PTX (19.05 mg/kg, molar equivalent to 2 mg/kg of PTX; n = 5/group). C-E, The therapeutic effect of AGM-330-PTX was evaluated in breast cancer xenograft models. C, Primary tumor volume was measured twice a week until the day of sacrifice. The primary tumor volume was calculated by the formula volume (mm^3) = (length (mm)) × (width (mm))^2 × 0.5. D, On the day of sacrifice, all primary tumors were isolated, and (E) the primary tumor weights were evaluated. F-I, Immunohistochemistry (IHC) sections of representative tumors with Ki-67 (F,H) and TUNEL (G,I) staining. Nuclei were stained with DAPI (blue). Scale bar, 50 µm. Bar graphs represent the mean ± SD, and statistical analyses were performed by one-way ANOVA with Dunnett's multiple comparison. *, **, and *** indicate P < 0.05, P < 0.01, and P < 0.001, respectively.
Following in vitro proliferation analysis on cancer lines, we investigated whether AGM-330-PTX could be a potential therapeutic agent in vivo. We inoculated MDA-MB-231-luc cells into the mammary fat pad of NPG mice. After the […] tumors grew to 100 mm^3, comparative efficacy studies were performed by dividing the animals into five groups (n = 5/group) treated with vehicle (PBS), PTX (2 or 10 mg/kg, respectively), AGM-330 (16.68 mg/kg, molar equivalent to 2 mg/kg of PTX), or AGM-330-PTX (19.05 mg/kg, molar equivalent to 2 mg/kg of PTX) twice a week by tail vein injection (Figure 5B). Tumor growth was monitored by measuring volumes twice a week with a caliber rule over the course of 3 weeks.
Figure S11. A-E, NPG TM mice bearing MDA-MB-231-luc tumors were treated twice a week for 21 days with […]

Setting [3] is: AGM-330-PTX treatment, xenograft.

Take `CSCC[C@H](NC(=O)[C@H](C)NC(=O)CNC(=O)[C@H](Cc1c[nH]cn1)NC(=O)[C@@H](N)CCCNC(=N)N)C(=O)N[C@H](C(=O)N[C@@H](Cc1ccc(O)cc1)C(=O)N[C@@H](CC(C)C)C(=O)N[C@@H](CCCCN)C(=O)NCCOCCOCCOCCOCCOCCOCCOCCOCCOCCOCCOCCOCCC(=O)NCCCC[C@H](NC(=O)CCOCCOCCOCCOCCOCCOCCOCCOCCOCCOCCOCCOCCNC(=O)[C@H](CCCCN)NC(=O)[C@H](CC(C)C)NC(=O)[C@H](Cc1ccc(O)cc1)NC(=O)[C@@H](NC(=O)[C@H](CCSC)NC(=O)[C@H](C)NC(=O)CNC(=O)[C@H](Cc1c[nH]cn1)NC(=O)[C@@H](N)CCCNC(=N)N)C(C)C)C(=O)NCCCC[C@H](NC(=O)[C@H](CCCCNC(=O)CCOCCOCCOCCOCCOCCOCCOCCOCCOCCOCCOCCOCCNC(=O)[C@H](CCCCN)NC(=O)[C@H](CC(C)C)NC(=O)[C@H](Cc1ccc(O)cc1)NC(=O)[C@@H](NC(=O)[C@H](CCSC)NC(=O)[C@H](C)NC(=O)CNC(=O)[C@H](Cc1c[nH]cn1)NC(=O)[C@@H](N)CCCNC(=N)N)C(C)C)NC(=O)CCOCCOCCOCCOCCOCCOCCOCCOCCOCCOCCOCCOCCNC(=O)[C@H](CCCCN)NC(=O)[C@H](CC(C)C)NC(=O)[C@H](Cc1ccc(O)cc1)NC(=O)[C@@H](NC(=O)[C@H](CCSC)NC(=O)[C@H](C)NC(=O)CNC(=O)[C@H](Cc1c[nH]cn1)NC(=O)[C@@H](N)CCCNC(=N)N)C(C)C)C(=O)N[C@@H](CSC1CC(=O)N(CCC(=O)O[C@@H](C(=O)O[C@H]2C[C@@]3(O)[C@@H](OC(=O)c4ccccc4)[C@@H]4[C@]5(OC(C)=O)CO[C@@H]5C[C@H](O)[C@@]4(C)C(=O)[C@H](OC(C)=O)C(=C2C)C3(C)C)[C@@H](NC(=O)c2ccccc2)c2ccccc2)C1=O)C(=O)O)C(C)C` (stereo partly shown) [AGM-330-PTX]: the “hydrolysis of the propionic acid linker (release of PTX) in serum” value in series [1] is “almost completely hydrolyzed after 2 h”. The “hydrolysis of the propionic acid linker (release of PTX) in PBS” value in series [2] is “fully hydrolyzed in PBS after 12 h”. Besides, the average tumor volume in the series on MDA-MB-231-luc xenograft (19.05 mg/kg (molar equivalent to 2 mg/kg of PTX), tail vein twice a week, day 21, n = 5) is 807 ± 90 mm^3. The “final average tumor weight” value in the series on MDA-MB-231-luc xenograft (19.05 mg/kg (molar equivalent to 2 mg/kg of PTX), tail vein twice a week, n = 5) is 1.3 ± 0.1 g. Further, the “blood chemistry analysis (ALB, GOT, GPT, TP-PS, UA in serum)” value in the series on MDA-MB-231-luc xenograft (19.05 mg/kg twice a week for 21 days, n = 5) was “no adverse signs of toxicity”. The “mouse body weight versus vehicle (PBS)” value with MDA-MB-231-luc xenograft (19.05 mg/kg twice a week, 3 weeks, n = 5) is “not affected”. The “histology of excised tumors (H&E, Ki-67, TUNEL)” value in the series on MDA-MB-231-luc xenograft (19.05 mg/kg twice a week, excised tumors) was “a reduction in the number of cancerous cells and an increase in apoptotic cell nuclei”. Further, the “decrease of average tumor volume with respect to the same dose PTX” value in the series with MDA-MB-231-luc xenograft (19.05 mg/kg versus PTX 2 mg/kg, n = 5) is on record as “approximately 52%”. Moreover, in the series on MDA-MB-231-luc xenograft (setting [3]), the “decrease in tumor volume compared with the PBS-treated group” value was 63% and the “decrease in tumor weight compared with the PBS-treated group” value is recorded as 43%.

The values above are taken from PMC7415810, “A novel nucleolin-binding peptide for Cancer Theranostics” (Theranostics, 2020).
